Experimental data reported in article PMC3608651, “A Broad Profile of Co-Dominant Epitopes Shapes the Peripheral Mycobacterium tuberculosis Specific CD8+ T-Cell Immune Response in South African Patients with Active Tuberculosis” (PLoS ONE, 2013).
Where two headings read alike, the source gives them in different places. Marks after values point to notes of the source that are not given here.

Key:
HLA-A*30:02 [1] = target: T1, HLA-A*30:02 (Homo sapiens, UniProt P04439, D101N/D140H/D185E/E176R/F33S/G80R/H175R/K168Q/Q94H/R138E/R41S/V100E); settings: cited from earlier work
HLA-A*30:02 [2] = target: T1, HLA-A*30:02; settings: percent relative the binding of a positive control peptide, cited from earlier work
HLA-A*30:02 [3] = target: T1, HLA-A*30:02; settings: cited from earlier work; remark: listed apart in the source
HLA-A*68:01 [4] = target: T2, HLA-A*68:01 (Homo sapiens, UniProt P04439, A269V/D185E/E176V/E277Q/E87N/F33Y/G231S/I121M/I166T/I218V/L180W/L300P/L318F/N151K/P208A/P217A/Q86R/R169H/T345S); format: binding; settings: time points 0-8 h
HLA-C*07:01 [5] = target: T3, HLA-C*07:01 (Homo sapiens, UniProt P10321, K90N/S123Y); format: binding; settings: percent relative the binding of positive control peptide […]; duplicated experiments; positive binder >40%
HLA-A*02:01 [6] = target: T4, HLA-A*02:01 (Homo sapiens, UniProt P04439, D140Y/D185E/D98H/E176V/E277Q/G131W/G231S/I119V/I121R/I166T/I218V/L300P/L318F/N151K/N90K/P208A/P217A/Q86G/Q94H/R138H/R169H/T345S); settings: percent relative the binding of a positive control peptide, cited from earlier work
HLA-A*02:01 [7] = target: T4, HLA-A*02:01; settings: cited from earlier work
HLA-B*58:01 [8] = target: T5, HLA-B*58:01 (Homo sapiens, UniProt P01889, A329T/C349S/D201E/D98Y/E176V/E187L/E204Q/E69T/G107R/I218V/I90N/K202T/L105A/L119I/N104I/N87E/Q89R/Q94S/R106L/R155S/R180L/R86G/S101N/S121R/S35A/S48A/T118I/V127L/V306I/V36M/Y140S/Y91M); format: binding; settings: percent relative the binding of positive control peptide […]; duplicated experiments; positive binder >40%
HLA-A*02:01 [9] = target: T4, HLA-A*02:01; settings: cited from earlier work; remark: listed apart in the source
HLA-A*68:01 [10] = target: T2, HLA-A*68:01; format: binding
HLA-A*68:01 [11] = target: T2, HLA-A*68:01; format: binding; settings: percent relative the binding of positive control peptide […]; duplicated experiments; positive binder >40%
HLA-C*07:01 [12] = target: T3, HLA-C*07:01; test: off-rate assay (t1/2); format: binding; settings: time points 0-8 h
HLA-B*58:01 [13] = target: T5, HLA-B*58:01; format: binding; settings: time points 0-8 h
HLA-A*02:01 [14] = target: T4, HLA-A*02:01; format: binding
HLA-A*02:01 [15] = target: T4, HLA-A*02:01; format: binding; remark: listed apart in the source
HLA-B*07:02 = HLA-B*07:02 (Homo sapiens, UniProt P01889); format: binding
HLA-B*58:01 [16] = target: T5, HLA-B*58:01; format: binding
HLA-C*07:01 [17] = target: T3, HLA-C*07:01; test: affinity assay (ED50); format: binding
HLA-A*30:01 = HLA-A*30:01 (Homo sapiens, UniProt P04439, D140H/D185E/E176W/F33S/G80R/H175R/K168Q/R138E/R41S); format: binding; settings: percent relative the binding of positive control peptide […]; duplicated experiments; positive binder >40%
HLA-A*02:01 [18] = target: T4, HLA-A*02:01; format: binding; remark: listed apart in the source
HLA-A*30:02 [19] = target: T1, HLA-A*30:02; format: binding; settings: percent relative the binding of positive control peptide […]; duplicated experiments; positive binder >40%
HLA-A*24:02 [20] = target: T6, HLA-A*24:02 (Homo sapiens, UniProt P04439, D101N/D140Y/D185E/E176V/E190D/F33S/G103R/G107R/I119L/I121M/I306V/K335N/L105A/L180Q/L300P/N151K/N90K/Q86E/Q94H/R106L/R138H/R89G/T104I/T345S/V100E/W191G/Y123F); format: binding
HLA-A*30:02 [21] = target: T1, HLA-A*30:02; format: binding
HLA-A*30:02 [22] = target: T1, HLA-A*30:02; format: binding; settings: time points 0-8 h
HLA-A*24:02 [23] = target: T6, HLA-A*24:02; format: binding; remark: listed apart in the source
HLA-A*24:02 [24] = target: T6, HLA-A*24:02; format: binding; remark: listed apart in the source
[25] = percent relative the binding of positive control peptide […], duplicated experiments, positive binder >40%
[26] = percent relative the binding of positive control peptide […], plate-bound monomer 0.5 µg/ml, duplicated experiments, positive binder >40%

## AYHAMSSTH [Rv0288_68–76wt]
HLA-A*30:02 [1]; wild-type epitopes marked **
  Aff A*30:02 (ED50): 300 nM
HLA-A*30:02 [2]; wild-type epitopes marked **
  Bind A*30:02: 70** percent
HLA-A*30:02 [3]; wild-type epitopes marked **
  O-rate A*30:02 (t1/2): 1.2 h

## GHAGDMAGY [Rv0288_13–21wt]
HLA-A*30:02 [1]; wild-type epitopes marked **
  Aff A*30:02 (ED50): 40 nM
HLA-A*30:02 [2]; wild-type epitopes marked **
  Bind A*30:02: 71** percent
HLA-A*30:02 [3]; wild-type epitopes marked **
  O-rate A*30:02 (t1/2): 1.3 h

## HAMSSTHEA [Rv0288_70–78]
HLA-A*68:01 [4]
  O-rate A*68:01 (t1/2): 0.5 h
HLA-C*07:01 [5]
  Bind C*07:01: 6%
HLA-A*02:01 [6]; […]
  Bind A*02:01: 43* percent
HLA-A*30:02 [1]
  Aff A*30:02 (ED50): 300 nM
HLA-A*02:01 [7]
  O-rate A*02:01 (t1/2): 2.5 h
HLA-B*58:01 [8]
  Bind B*58:01: 16%
HLA-A*02:01 [9]
  Aff A*02:01 (ED50): 6e-06 M
HLA-A*30:02 [2]; […]
  Bind A*30:02: 88** percent
HLA-A*30:02 [3]
  O-rate A*30:02 (t1/2): 0.6 h
HLA-A*68:01 [10]
  Aff A*68:01 (ED50): 6e-06 M
HLA-A*68:01 [11]
  Bind A*68:01: 77%

## MAGSSAMIL
HLA-C*07:01 [5]
  Bind C*07:01: 94%
HLA-C*07:01 [12]
  O-rate C*07:01 (t1/2): 0.5 h
HLA-B*58:01 [13]
  O-rate B*58:01 (t1/2): 0.8 h
HLA-A*02:01 [14]; time points 0-8 h, time when 50% of peptide has dissociated
  O-rate A*02:01 (t1/2): 0.4 h
HLA-B*58:01 [8]
  Bind B*58:01: 55%
HLA-A*02:01 [15]; […], peptide quantity for 50% binding saturation
  Aff A*02:01 (ED50): 700 nM
HLA-B*07:02; [25]
  Bind B*07:02: 57%
HLA-B*58:01 [16]
  Aff B*58:01 (ED50): 9e-09 M
HLA-C*07:01 [17]
  Aff C*07:01 (ED50): 1E -08 M
HLA-A*30:01
  Bind A*30:01: 0%
HLA-A*02:01 [18]; [26]
  Bind A*02:01: 54%
HLA-A*30:02 [19]
  Bind A*30:02: 13%
HLA-A*24:02 [20]; [25]
  Bind A*24:02: 26%
HLA-A*68:01 [11]
  Bind A*68:01: 0%

## MLGHAGDMA [Rv0288_11–19wt]
HLA-A*02:01 [6]; wild-type epitopes marked *
  Bind A*02:01: 67* percent
HLA-A*02:01 [7]; wild-type epitopes marked *
  O-rate A*02:01 (t1/2): 1.4 h
HLA-A*02:01 [9]; wild-type epitopes marked *
  Aff A*02:01 (ED50): 7e-07 M

## QSLGAEIAV [Rv0288_26–34wt]
HLA-A*02:01 [6]; […]
  Bind A*02:01: 48* percent
HLA-B*58:01 [13]
  O-rate B*58:01 (t1/2): 0.1 h
HLA-B*58:01 [8]
  Bind B*58:01: 30%
HLA-A*02:01 [9]
  Aff A*02:01 (ED50): 2e-06 M
HLA-B*58:01 [16]
  Aff B*58:01 (ED50): 0.0002 M

## SLGAEIAVE [Rv0288_27–35wt]
HLA-A*02:01 [6]; wild-type epitopes marked *
  Bind A*02:01: 28* percent
HLA-A*02:01 [7]; wild-type epitopes marked *
  O-rate A*02:01 (t1/2): 1.8 h
HLA-A*02:01 [9]; wild-type epitopes marked *
  Aff A*02:01 (ED50): 1e-05 M

## SQIMYNYPA [Rv0288_2–10wt]
HLA-A*02:01 [6]; […]
  Bind A*02:01: 78* percent
HLA-A*30:02 [1]
  Aff A*30:02 (ED50): 2000 nM
HLA-A*02:01 [7]
  O-rate A*02:01 (t1/2): 4.9* h
HLA-A*02:01 [9]
  Aff A*02:01 (ED50): 4E-07* M
HLA-A*30:02 [2]; […]
  Bind A*30:02: 46** percent
HLA-A*30:02 [3]
  O-rate A*30:02 (t1/2): 0.3 h

## SSAMILAAY
HLA-A*68:01 [4]
  O-rate A*68:01 (t1/2): 1.8 h
HLA-C*07:01 [5]
  Bind C*07:01: 41%
HLA-A*30:02 [21]
  Aff A*30:02 (ED50): 7E -09 M
HLA-C*07:01 [12]
  O-rate C*07:01 (t1/2): 1.6 h
HLA-B*58:01 [13]
  O-rate B*58:01 (t1/2): 0.8 h
HLA-B*58:01 [8]
  Bind B*58:01: 90%
HLA-B*07:02; [25]
  Bind B*07:02: 4%
HLA-B*58:01 [16]
  Aff B*58:01 (ED50): 2E -08 M
HLA-C*07:01 [17]
  Aff C*07:01 (ED50): 4E -07 M
HLA-A*30:01
  Bind A*30:01: 0%
HLA-A*30:02 [22]
  O-rate A*30:02 (t1/2): 3.6 h
HLA-A*02:01 [18]; [26]
  Bind A*02:01: 0%
HLA-A*30:02 [19]
  Bind A*30:02: 118%
HLA-A*24:02 [20]; [25]
  Bind A*24:02: 36%
HLA-A*68:01 [10]
  Aff A*68:01 (ED50): 1E -07 M
HLA-A*68:01 [11]
  Bind A*68:01: 101%

## YQSGLSIVM
HLA-A*24:02 [23]
  Aff A*24:02 (ED50): 500 nM
HLA-C*07:01 [5]
  Bind C*07:01: 68%
HLA-A*30:02 [21]
  Aff A*30:02 (ED50): 8E -07 M
HLA-C*07:01 [12]
  O-rate C*07:01 (t1/2): 0.3 h
HLA-A*02:01 [14]
  O-rate A*02:01 (t1/2): 3.1 h
HLA-B*58:01 [8]
  Bind B*58:01: 0%
HLA-A*24:02 [24]
  O-rate A*24:02 (t1/2): 1.5 h
HLA-A*02:01 [15]
  Aff A*02:01 (ED50): 50 nM
HLA-B*07:02
  Bind B*07:02: 2
HLA-C*07:01 [17]
  Aff C*07:01 (ED50): 7E -09 M
HLA-A*30:01
  Bind A*30:01: 27%
HLA-A*30:02 [22]
  O-rate A*30:02 (t1/2): 0.4 h
HLA-A*02:01 [18]
  Bind A*02:01: 142
HLA-A*30:02 [19]
  Bind A*30:02: 123%
HLA-A*24:02 [20]
  Bind A*24:02: 59
HLA-A*68:01 [11]
  Bind A*68:01: 7%
